Laboratory results as given in USRE49361E1, “Fused bicyclic (hetero)aromatic compounds useful for the treatment of cancers” (JAZZ PHARMACEUTICALS IRELAND LIMITED, priority 2014, dated 2023).

System: C-RAF-mediated ERK activation in B-RAF^WT IPC-298 cells (NRAS^Q61L)
Assay: IPC-298 AlphaScreen SureFire pERK1/2 cellular assay
Format: cell-based, human
Conditions: 1 hour treatment, in comparison to Dabrafenib
Experimental: On day 2, compounds at a concentration of 6 mM are serially diluted 5 μl into 45 μl of 100% dimethyl sulfoxide (DMSO) six times in 96-well plates for a total of 7 dilution points. […] The cells are treated for 1 hour at 37° C. in 5% CO2. The treatment is then removed and the cells are incubated with lysis buffer containing phosphatase inhibitors for 10 minutes at room temperature with gentle shaking. […] The biotinylated antibody binds to the streptavidin-coated donor beads and the phopsho-ERK1/2 antibody binds to the acceptor beads. Plates are read on an EnVision reader (Perkin Elmer) and excitation of the beads at 680 nm with a laser induces the release of singlet oxygen molecules from the donor beads that triggers energy transfer to the acceptor beads in close proximity, producing a signal that can be measured at 570 nm. Both antibodies bind to phosphorylated ERK proteins, bringing the donor and acceptor beads into close proximity.
All data are analysed using the GraphPad Prism software package. Activation of ERK phosphorylation is expressed as a percentage of activation relative to the reference compound, Dabrafenib.

Row | SMILES | paradoxical activation of MAPK pathway (ERK phosphorylation) relative to Dabrafenib
1 | O=C1CCc2c(Oc3ccc4c(c3)CC(c3nc(-c5ccncc5)c[nH]3)CO4)ccnc2N1 (stereo not drawn) [Example 4, 5-[3-[4-(4-pyridyl)-1H-imidazol-2-yl]chroman-6-yl]oxy-3,4-dihydro-1H-1,8-naphthyridin-2-one] | reduced paradoxical activity
2 | O=C1CCc2c(Oc3ccc4c(c3)O[C@H](c3nc(-c5ccccc5)c[nH]3)CO4)ccnc2N1 [Example 20, 5-[[(3R)-3-(4-phenyl-1H-imidazol-2-yl)-2,3-dihydro-1,4-benzodioxin-6-yl]oxy]-3,4-dihydro-1H-1,8-naphthyridin-2-one] | reduced paradoxical activity
3 | O=C1CCc2c(Oc3ccc4c(c3)CC(c3nc(-c5cccs5)c[nH]3)CO4)ccnc2N1 (stereo not drawn) [Example 7, 5-[3-[4-(2-thienyl)-1H-imidazol-2-yl]chroman-6-yl]oxy-3,4-dihydro-1H-1,8-naphthyridin-2-one] | reduced paradoxical activity
4 | O=C1CCc2c(Oc3ccc4c(c3)CC(c3cc(-c5ccccc5)[nH]n3)CO4)ccnc2N1 (stereo not drawn) [Example 18, 5-[3-(5-phenyl-1H-pyrazol-3-yl)chroman-6-yl]oxy-3,4-dihydro-1H-1,8-naphthyridin-2-one] | reduced paradoxical activity
5 | O=C1CCc2c(Oc3ccc4c(c3)CC(c3nc(-c5ccsc5)c[nH]3)CO4)ccnc2N1 (stereo not drawn) [Example 6, 5-[3-[4-(3-thienyl)-1H-imidazol-2-yl]chroman-6-yl]oxy-3,4-dihydro-1H-1,8-naphthyridin-2-one] | reduced paradoxical activity
6 | O=C1CCc2c(Oc3ccc4c(c3)O[C@@H](c3nc(-c5ccccc5)c[nH]3)CO4)ccnc2N1 [Example 19, 5-[[(3S)-3-(4-phenyl-1H-imidazol-2-yl)-2,3-dihydro-1,4-benzodioxin-6-yl]oxy]-3,4-dihydro-1H-1,8-naphthyridin-2-one] | reduced paradoxical activity
